Assay [1] addresses T1, recombinant human Lp-PLA2 (Homo sapiens, UniProt Q13093).
T1 sequence (Q13093 22-441): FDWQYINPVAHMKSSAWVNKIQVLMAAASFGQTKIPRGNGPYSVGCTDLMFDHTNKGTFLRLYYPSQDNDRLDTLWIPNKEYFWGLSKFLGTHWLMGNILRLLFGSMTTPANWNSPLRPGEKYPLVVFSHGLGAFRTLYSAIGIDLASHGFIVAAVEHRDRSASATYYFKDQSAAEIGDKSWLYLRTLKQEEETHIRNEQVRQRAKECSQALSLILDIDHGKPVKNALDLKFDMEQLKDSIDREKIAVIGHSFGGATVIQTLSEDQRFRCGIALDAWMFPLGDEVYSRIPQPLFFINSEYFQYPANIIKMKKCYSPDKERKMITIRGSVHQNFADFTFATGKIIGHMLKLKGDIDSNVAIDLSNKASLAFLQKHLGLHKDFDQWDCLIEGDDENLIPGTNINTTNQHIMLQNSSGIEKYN
Kind of assay: Recombinant human Lp-PLA2 assay (rhLp-PLA2, PED6 assay). In kind it is biochemical. The text has this:
(1) Recombinant Human Lp-PLA2 Assay (rhLp-PLA2) (Also Referred to as “PED6” Assay)
N-((6-(2,4-dinitrophenyl)amino)-hexanoyl)-2-(4,4-difluoro-5,7-dimethyl-4-bora-3a,4a-diaza-s-indacene-3-pentanoyl)-1-hexadecanoyl-sn-glycero-3-phosphoethanolamine, triethylammonium salt (PED6) is a commercially available fluorescently-labeled phospholipid, which is commercially available from Invitrogene and Molecular Probes. There is a quenching para-nitro phenyl (PNP) group in the sn3 position and a Bodipy fluorescein (FL) group in the sn2 position. Upon cleavage with Lp-PLA2, the Bodipy FL group is liberated and then may result in an increase in fluorescence. Inhibitors of Lp-PLA2 therefore prevent this cleavage and no fluorescent increase is observed.
The PED6 assay was run as an unquenched 10 μL assay. The source plate containing the compounds to be tested was prepared by making 1:3 (by volume) serial dilution of the compounds within DMSO on 384-well microplate. Then, 0.01 μL of the compounds on compound source plate were transferred into 384 well Greiner 784076 (black) plates using ECHO liquid dispenser. 5 μL of recombinant human Lp-PLA2 enzyme (4 nM (or 110 pM) rhLp-PLA2 in assay buffer of 50 mM HEPES, pH 7.4, 150 mM NaCl, 1 mM CHAPS) was added to each well of the plate. Plates were centrifuged for 10 sec at 500 rpm. After 30 minutes preincubation, 5 μL of substrate (4 μM (or 5 μM) PED6 [from 5 mM DMSO stock] in assay buffer of 50 mM HEPES, pH 7.4, 150 mM NaCl, 1 mM CHAPS) was added to 384 well Greiner 784076 (black) plates. Plates were centrifuged for 10 sec at 500 rpm. The plate was covered to protect it from light and incubated for 20 min at room temperature. The plates were read for fluorescence intensity at ex: 480/em: 540 using ViewLux microplate imager for Envision spectrofluroimeters. pIC50 data, curve and QC analysis was conducted by using XL fit module in Excel.

In another assay the target is T2, Lp-PLA2 in human plasma (Homo sapiens, UniProt Q13093).
T2 construct: from tissue; host or cells: pooled human plasma
T2 sequence (Q13093 22-441): T1 sequence (Q13093 22-441)
Kind of assay: Lp-PLA2 human plasma assay (Thio-PAF assay). In kind it is biochemical. The following applies: pooled human plasma; read-out: pIC50 values in the thio-PAF assay (converted). The text has this: The human plasma assay utilizes a thioester analog of PAF (phosphatidylcholine), where hydrolysis yields to the formation of a phospholipid containing a free thiol group. The amount of thiol is quantitated continuously by reacting with CPM (7-diethylamino-3-(4′-maleimidylphenyl)-4-methylcoumarin), a maleimide which increases in fluoresence after Michael addition of thiols. This assay may detect the activity of Lp-PLA2 in human plasma, as determined by specific inhibition by Lp-PLA2 inhibitors.
The thio-PAF assay was run as a quenched 15 μL assay. Compounds source plate was prepared by making 1:3 (by volume) serial dilution of the compounds into pure DMSO on 384-well microplate. 0.01 μL of compounds on compound source plate were transferred to 384 well Greiner 784076 (black) low-volume plates by ECHO liquid dispenser. 8 μL pooled human plasma, which was previously aliquoted and frozen, was added. Plates were centrifuged for 10 sec at 500 rpm. After 30 minutes preincubation, 2 μL of substrate solution comprising 2.5 mM 2-thio-PAF [from ethanol stock], 32 μM CPM [from a DMSO stock] and 3.2 mM NEM (N-ethylmaleimide) [made fresh daily in DMSO] in assay buffer of 50 mM HEPES, pH 7.4, 150 mM NaCl, 1 mM CHAPS was added to 384 well Greiner 784076 (black) low-volume plates by BRAVO liquid handling station. After 2 mins, reaction was quenched with 5 μL of 5% aqueous trifluoroacetic acid (TFA). Plates were covered to protect from light and incubated for 40 min at room temperature. Plates were read at ex: 380/em: 485 using-Envision microplate reader. pIC50 data, curve and QC analysis was conducted by using XLFit module in Excel.

[2] abbreviates: read-out: pIC50 values in the recombinant human Lp-PLA2 assay (converted).
The mark [3] stands for this setting: read-out: rhLp-PLA2 (PED6 assay) (pIC50) (converted).

Each structure is given as a SMILES string. Where two headings read alike, the source gives them in different places. Where only a bound is given, the exact number is not on record here.

As for `CC1CCn2c(cc(OCc3ccc(Oc4ccc(C(F)(F)F)nc4)c(F)c3)nc2=O)N1` (stereo not shown) [E1, 8-((3-fluoro-4-((6-(trifluoromethyl)pyridin-3-yl)oxy)benzyl)oxy)-2-methyl-3,4-dihydro-1H-pyrimido[1,6-a]pyrimidin-6(2H)-one], the values for the IC50 (in assay [1] (setting [2]); on Lp-PLA2 in human plasma) were at most 1 nM and at most 100 nM, respectively.

Regarding `CC1CCn2c(cc(OCc3ccc(Oc4ccc(C(F)(F)F)cc4)c(C#N)c3)nc2=O)N1` (stereo not shown) [E2, 5-(((2-methyl-6-oxo-2,3,4,6-tetrahydro-1H-pyrimido[1,6-a]pyrimidin-8-yl)oxy)methyl)-2-(4-(trifluoromethyl)phenoxy)benzonitrile], the IC50 in assay [1] (setting [2]) is at most 1 nM; in assay [1] (setting [3]) it was 0.126 nM; at Lp-PLA2 in human plasma it was at most 100 nM.

For the compound `CC1CCn2c(cc(OCc3ccc(Oc4ccc(F)c(F)c4)c(F)c3)nc2=O)N1` (stereo not shown) [E3, 8-((4-(3,4-difluorophenoxy)-3-fluorobenzyl)oxy)-2-methyl-3,4-dihydro-1H-pyrimido[1,6-a]pyrimidin-6(2H)-one], the IC50 in assay [1] (setting [2]) was at most 1 nM; at Lp-PLA2 in human plasma, at most 100 nM.

For the compound `CC1CCn2c(cc(OCc3ccc(F)c(F)c3)nc2=O)N1` (stereo not shown) [E4, 8-((3,4-difluorobenzyl)oxy)-2-methyl-3,4-dihydro-1H-pyrimido[1,6-a]pyrimidin-6(2H)-one], the IC50 in assay [1] (setting [3]) is 3.16 nM; at Lp-PLA2 in human plasma, at most 100 nM.

Consider `CC1CCn2c(cc(OCc3cc(F)c(Oc4cccc(F)c4)c(F)c3)nc2=O)N1` (stereo not shown) [E5, 8-((3,5-difluoro-4-(3-fluorophenoxy)benzyl)oxy)-2-methyl-3,4-dihydro-1H-pyrimido[1,6-a]pyrimidin-6(2H)-one], for which the IC50 is at most 1 nM in assay [1] (setting [2]) and 0.398 nM in assay [1] (setting [3]).

Take `CC1CCn2c(cc(OCc3ccc(Oc4ccc(Cl)c(F)c4)c(C#N)c3)nc2=O)N1` (stereo not shown) [E6, 2-(4-chloro-3-fluorophenoxy)-5-(((2-methyl-6-oxo-2,3,4,6-tetrahydro-1H-pyrimido[1,6-a]pyrimidin-8-yl)oxy)methyl)benzonitrile]: the IC50 in assay [1] (setting [2]) was at most 1 nM; on Lp-PLA2 in human plasma, at most 100 nM.

With `CC1CCn2c(cc(OCc3ccc(F)c(F)c3)nc2=O)N1C` (stereo not shown) [E7, 8-((3,4-difluorobenzyl)oxy)-1,2-dimethyl-3,4-dihydro-1H-pyrimido[1,6-a]pyrimidin-6(2H)-one], the IC50 is at most 1 nM in assay [1] (setting [2]) and at most 100 nM at Lp-PLA2 in human plasma.

Take `CC1CCn2c(cc(OCc3cc(F)c(F)c(F)c3)nc2=O)N1C` (stereo not shown) [E8, 1,2-dimethyl-8-((3,4,5-trifluorobenzyl)oxy)-3,4-dihydro-1H-pyrimido[1,6-a]pyrimidin-6(2H)-one]: the IC50 in assay [1] (setting [2]) was at most 1 nM; in assay [1] (setting [3]) it was 0.398 nM; at Lp-PLA2 in human plasma, at most 100 nM.

Regarding `[2H]C([2H])(Oc1cc2n(c(=O)n1)CC[C@@H](C)N2C)c1cc(F)c(F)cc1F` [E23, (R)-8-(dideutero(2,4,5-trifluorophenyl)methoxy)-1,2-dimethyl-3,4-dihydro-1H-pyrimido[1,6-a]pyrimidin-6(2H)-one], the IC50 in assay [1] (setting [3]) was 12.6 nM.

With `C[C@@H]1CCn2c(cc(OCc3ccc(F)c(F)c3)nc2=O)N1` [E28, (R)-8-((3,4-difluorobenzyl)oxy)-2-methyl-3,4-dihydro-1H-pyrimido[1,6-a]pyrimidin-6(2H)-one], the IC50 in assay [1] (setting [2]) was at most 1 nM; at Lp-PLA2 in human plasma, at most 100 nM.

For `C[C@@H]1CCn2c(cc(OCc3cc(F)c(F)c(F)c3)nc2=O)N1` [E29, (R)-2-methyl-8-((3,4,5-trifluorobenzyl)oxy)-3,4-dihydro-1H-pyrimido[1,6-a]pyrimidin-6(2H)-one], the IC50 is 1.26 nM in assay [1] (setting [3]) and at most 100 nM on Lp-PLA2 in human plasma.

Regarding `C[C@H]1CCn2c(cc(OCc3cc(F)c(F)c(F)c3)nc2=O)N1C` [E35, (S)-1,2-dimethyl-8-((3,4,5-trifluorobenzyl)oxy)-3,4-dihydro-1H-pyrimido[1,6-a]pyrimidin-6(2H)-one], the IC50 in assay [1] (setting [2]) is at most 1 nM; at Lp-PLA2 in human plasma it was at most 100 nM.

Take `C[C@H]1CCn2c(cc(OCc3ccc(F)c(F)c3)nc2=O)N1C` [E37, (S)-8-((3,4-difluorobenzyl)oxy)-1,2-dimethyl-3,4-dihydro-1H-pyrimido[1,6-a]pyrimidin-6(2H)-one]: the IC50 in assay [1] (setting [2]) is at most 1 nM; on Lp-PLA2 in human plasma it was at most 100 nM.

With `C[C@@H]1CCn2c(cc(OCc3ccc(OC4CCCC4)c(F)c3)nc2=O)N1C` [E48, (R)-8-((4-(cyclopentyloxy)-3-fluorobenzyl)oxy)-1,2-dimethyl-3,4-dihydro-1H-pyrimido[1,6-a]pyrimidin-6(2H)-one], the IC50 in assay [1] (setting [3]) was 7.94 nM.

Take `CC(C)Oc1ccc(COc2cc3n(c(=O)n2)CC[C@@H](C)N3C)cc1F` [E51, (R)-8-((3-fluoro-4-isopropoxybenzyl)oxy)-1,2-dimethyl-3,4-dihydro-1H-pyrimido[1,6-a]pyrimidin-6(2H)-one]: the IC50 in assay [1] (setting [3]) is 50.1 nM.

`C[C@@H]1CCn2c(cc(OCc3ccc(OC4CCCCC4)c(F)c3)nc2=O)N1C` [E67, (R)-8-((4-(cyclohexyloxy)-3-fluorobenzyl)oxy)-1,2-dimethyl-3,4-dihydro-1H-pyrimido[1,6-a]pyrimidin-6(2H)-one]: in assay [1] (setting [3]), the IC50 was 5.01 nM.

Turning to `CC(C)N1c2cc(OCc3ccc(F)c(F)c3)nc(=O)n2CC[C@H]1C` [E69, (R)-8-((3,4-difluorobenzyl)oxy)-1-isopropyl-2-methyl-3,4-dihydro-1H-pyrimido[1,6-a]pyrimidin-6(2H)-one], in assay [1] (setting [2]), the IC50 is at most 1 nM.

Consider `C[C@H]1CCn2c(cc(OCc3cc(F)c(OC4CCCCC4)c(F)c3)nc2=O)N1C` [E81, (S)-8-((4-(cyclohexyloxy)-3,5-difluorobenzyl)oxy)-1,2-dimethyl-3,4-dihydro-1H-pyrimido[1,6-a]pyrimidin-6(2H)-one], for which the IC50 in assay [1] (setting [2]) is at most 1 nM.

For `CC(C)Oc1c(F)cc(COc2cc3n(c(=O)n2)CC[C@@H](C)N3C)cc1F` [E82, (R)-8-((3,5-difluoro-4-isopropoxybenzyl)oxy)-1,2-dimethyl-3,4-dihydro-1H-pyrimido[1,6-a]pyrimidin-6(2H)-one], the IC50 in assay [1] (setting [2]) was at most 1 nM; in assay [1] (setting [3]), 0.126 nM.

Turning to `C[C@@H]1CCn2c(cc(OCc3cc(F)c(OC4CCCCC4)c(F)c3)nc2=O)N1C` [E83, (R)-8-((4-(cyclohexyloxy)-3,5-difluorobenzyl)oxy)-1,2-dimethyl-3,4-dihydro-1H-pyrimido[1,6-a]pyrimidin-6(2H)-one], in assay [1] (setting [2]), the IC50 was at most 1 nM.

For `CC(C)Oc1c(F)cc(COc2cc3n(c(=O)n2)CC[C@H](C)N3C)cc1F` [E100, (S)-8-((3,5-difluoro-4-isopropoxybenzyl)oxy)-1,2-dimethyl-3,4-dihydro-1H-pyrimido[1,6-a]pyrimidin-6(2H)-one], the IC50 in assay [1] (setting [2]) was at most 1 nM.

On to `C[C@H]1CCn2c(cc(OCc3ccc(Oc4cc(F)cc(F)c4)cc3)nc2=O)N1C` [E141, (S)-8-((4-(3,5-difluorophenoxy)benzyl)oxy)-1,2-dimethyl-3,4-dihydro-1H-pyrimido[1,6-a]pyrimidin-6(2H)-one], for which the IC50 in assay [1] (setting [2]) is at most 1 nM.

Values taken from US20150344485A1, “BICYCLIC PYRIMIDONE COMPOUNDS AS INHIBITORS OF LP-PLA2” (GLAXOSMITHKLINE INTELLECTUAL PROPERTY DEVELOPMENT LIMITED, priority 2013, published 2015).
